Data reported in ChEMBL document CHEMBL1157539, “Thousands of chemical starting points for antimalarial lead identification” (Nature, 2010).

System: Plasmodium falciparum
Experiment: GSK_TCMDC: Inhibition of Plasmodium falciparum 3D7 in whole erythrocytes, using parasite LDH activity as an index of growth.
Type: functional, organism-based
Settings: Plasmodium falciparum, 3D7

SMILES	XC50 [nM]
Cc1ccc2nc(C)cc(N/N=C/c3cccc([N+](=O)[O-])c3)c2c1	876
COc1ccc(-c2nc3c(NCc4ccccc4)nccc3[nH]2)c(OC)c1	778
COc1cccc(NC(=O)COc2ccc(C(=O)Nc3nc4ccccc4[nH]3)cc2)c1	970
O=C(NCc1cccc2ccccc12)c1ccc(CNC2CCN(Cc3ccccc3)CC2)cc1	838
Cc1ccccc1/N=C1\NC(=S)N(c2cccc(C(F)(F)F)c2)C12CCC(C(C)(C)C)CC2 (stereo not drawn)	973
CCn1c(Cc2ccccc2)nnc1Sc1ccc([N+](=O)[O-])c(C#N)c1	1010
COc1ccc(CCN(C)CCOc2ccc(NC(=O)COc3ccc4sc5ccccc5c(=O)c4c3)cc2)cc1OC	1100
c1ccc(CN2CCN(c3cc(-c4cncc(-c5ccccc5)c4)nc(-c4ccccc4)n3)CC2)cc1	1040
Cc1[nH]c(C)c(-c2ccc(OCc3cc(F)cc(F)c3)nc2)c(=O)c1Cl	86.8
CCOC(=O)c1ccc(COc2ccc(C)nc2)cc1	542
CC[C@H]1CN(Cc2cccc(O)c2)CC[C@H]1CCCc1ccnc2ccc(O)cc12	534
Cc1cc(=NN=Cc2ccc(Cl)cc2)c2cc(C(F)(F)F)ccc2[nH]1	920
Cc1onc(-c2ccccc2)c1-c1nc(NCc2ccccc2Cl)no1	699
COc1ccc(NC(=O)NC2CCN(c3ccnc4ccccc34)C2)cc1 (stereo not drawn)	875
COc1ccc(CNc2cc(C)nc3sc4c(c23)CCC2(C4)OCCO2)cc1	953
Cc1c(N)ccc2[nH]c(-c3ccc(N)cc3)nc12	1210
FC(F)(F)c1cccnc1N1CCC(Nc2nc3cc(Cl)ccc3[nH]2)CC1	646
CN1CCN(CCCN(Cc2cccc(-c3ccc(CNC4CCCC4)cc3)c2)C(=O)/C=C/c2ccccc2)CC1	746
Nc1nc(N)c2c(ccc3nn(Cc4ccccc4)cc32)n1	215
COc1ccc2nccc([C@@H](O)CN3CCC(NCc4cc5ccccc5o4)CC3)c2c1	658
Cc1cn(CC(=O)Nc2cccc(-c3cccc(-c4nc5cccc(C)c5[nH]4)c3)c2)c(=O)[nH]c1=O	581
O=C(N[C@H]1CCN(Cc2ccc(OCCN3CCCC3)c(Cl)c2)C1)c1ccc(Cl)c(Cl)c1	921
CCNc1cc(C(=O)N[C@@H](Cc2ccoc2)[C@H](O)CNC(C)CCCC(C)C)cc(N2CCCCS2(=O)=O)c1 (stereo partly drawn)	619
COc1ccc(S(=O)(=O)N2CCCc3ccc(Br)cc32)cc1N1CCN(C(=O)C(Cl)(Cl)Cl)CC1	809
CC[C@H](C)CNC(=O)c1cncc(-c2ccc(CNCCOc3ccccc3)cc2)c1	1110

SMILES	XC50 [nM]
OCCc1ccc(Nc2nccc(-c3nnc4ccccn34)n2)cc1	901
C=CC[C@H](C[C@H](O)[C@H](Cc1ccccc1)NC(=O)c1ccc(-n2cccn2)cc1)C(=O)NC1CCCCC1	810
Cc1cc2c(cc1C(F)(F)F)N(C(=O)Nc1cccc(C(=O)NC3CCN(Cc4ccccc4)CC3)c1)CC2	912
NC1=NC2(CCCCC2)N(OCCCCCCC2CCCCC2)C(N)=N1	356
CC1(C)N=C(N)N=C(N)N1c1ccccc1	327
Cc1cccc2nc(-c3cccc(-c4cccc(NC(=O)Cc5ccc[n+]([O-])c5)c4)c3)[nH]c12	635
COc1ccc2nccc(NCC3(O)CCC(NCc4cc5c(cn4)OCCO5)CC3)c2n1 (stereo not drawn)	664
CCCCCCNC(=O)C1Cc2c([nH]c3ccc(Br)cc23)C2(CCN(CCc3ccccc3)CC2)N1 (stereo not drawn)	788
COc1ccc(-c2cc(C(F)(F)F)n3ncc(C(=O)Nc4cc(C)ccc4O)c3n2)cc1OC	133
CN(C)CCCN1CCN(C(=O)c2cccc(-c3noc(C(F)(F)F)n3)c2)CC1	353
CCN(CC)c1nc(N)c2c(N)nc3c(c2c1C#N)C(=O)CN3Cc1ccccc1	70.8
Cc1ccccc1C1CCN(C2CCC(NC(=O)/C=C/c3ccc(C(F)(F)F)cc3F)CC2)CC1 (stereo not drawn)	902
Cc1cccc(-n2c(=O)c3c4c(sc3n3c(SCCC(C)C)nnc23)CCCC4)c1	763
Clc1ccccc1/C=C/c1cncnc1Nc1ccc2[nH]c(Cc3ccccc3)nc2c1	915
O=C(Nc1ccc(Cl)cn1)c1sc2ccccc2c1O	1040
Cc1cc(C(F)(F)F)n2nc(C(=O)N(C)Cc3cncn3Cc3ccc(F)cc3)cc2n1	832
FC(F)(F)c1ccc(/C=C/c2cncnc2Nc2ccc3[nH]c(Cc4ccccc4)nc3c2)cc1	608
Cc1cc(=NN=CC=Cc2ccccc2)c2cc(F)ccc2[nH]1	734
O=C(Nc1cccc(-c2csc(NC(=O)c3ccc4ccccc4c3)n2)c1)c1ccc2ccccc2c1	711
Cc1nc2nc(N)nc(N)c2c(C)c1Cc1cccc(C#N)c1	924
CCCNC(=O)C1Cc2cc(OC)c(OC)cc2C2(N1)C(=O)N(Cc1cccc(OC)c1)c1ccccc12 (stereo not drawn)	863
CC(=O)Nc1nnc(SCc2c(C)cc(C(C)(C)C)cc2C)s1	704
O=[N+]([O-])c1cccc(C=NNc2nc(=Nc3ccccc3)[nH]c(=Nc3ccccc3)[nH]2)c1	968
CCN(CC)CCCN(C(=O)Nc1ccc(C#N)cc1)c1nc(-c2ccc(F)cc2)cs1	650
CC(=O)Nc1cccc(/C=C/C(=O)N2CCC(N3CCCCC3)CC2)c1	1050

SMILES	XC50 [nM]
COC(=O)c1ccc(CC(C)NCC(O)c2cccc(OCc3ccccc3)c2)cc1 (stereo not drawn)	1160
CCCN(CCC)S(=O)(=O)c1ccc(C(=O)Nc2nc3ccc(-c4cc(=O)[nH]c(Nc5ccccc5Cl)n4)cc3[nH]2)cc1	594
O=S(=O)(Nc1ccc2nccc(N3CCNCC3)c2c1)c1ccc(-c2ccccc2)cc1	977
CCOc1ccc(C2CCN(CCCCNC(=O)c3ccc(NC(=O)c4ccc(Cl)cc4)cc3)CC2)c(CC)c1	786
CN(C)c1ccc(-c2csc(C(=O)NC3CCN(Cc4ccc(C(C)(C)C)cc4)C3)c2)cc1 (stereo not drawn)	947
COc1ccc(-c2ccc(NC(=O)c3ccc(Cl)cc3)cc2)cc1CN(C)CCO	813
CC(C)(C)c1ccc(Cc2cccc3nc(N)nc(N)c23)cc1	834
Cc1cc(N2CCCC2)nc(Nc2ccc(NC(=O)c3ccccc3)cc2)n1	977
CO/C(=C\C=C\c1cc2cc(Cl)c(Cl)cc2[nH]1)C(=O)NC1CC2CCCC(C1)N2C (stereo not drawn)	1000
COCCOCCOCCn1ccc2c3c(N)nc(N)nc3ccc21	263
Nc1nc(N)c2c(ccc3nn(C4CCCC4)cc32)n1	286
CCC1(CC)C(=O)N=C(N2CCCCC2)N(C)C1=O	303
Cc1noc(C)c1-c1ccc2c(Nc3ccc(C#N)cc3)c(C(N)=O)cnc2c1	755
O=[N+]([O-])c1cccc(CNC2CCN(Cc3ccc(C(F)(F)F)cc3)CC2)c1	736
COc1ccccc1N1CCN(c2cccc(F)c2C#N)CC1	965
N=c1[nH]c2cccc3ccc4cccc1c4c32	918
CCn1cc(CN2CCCC(C(=O)Nc3ccc(-c4nc5ccccc5[nH]4)cc3)C2)c(C)n1 (stereo not drawn)	802
CN1CCCN(Cc2ccc(-c3cccc(NC(=O)c4ccc(F)cc4)c3)cc2)CC1	1090
O=C(CCCCCNC(=O)c1ccc(O)c(-c2ccc(Cl)c(Cl)c2)c1)NCCN1CCCCC1	886
O=C(NCCc1ccc(Cl)c(Cl)c1)[C@@H]1CCCN1C(=O)c1ccc(O)c(-c2ccc(Cl)c(Cl)c2)c1	550
CCCOc1ccc(NC(=O)c2cccs2)cc1Cl	859
CC(C)(CNCc1ccc(OC(F)(F)F)cc1)c1nc(-c2ccc(Cl)c(O)c2)c(-c2ccncc2)[nH]1	545
c1ccc(-c2nc(Nc3ccncc3)sc2-c2ccccc2)cc1	812
